According to US20050070532A1, “Aryl compounds as modulators of PPARS and methods of treating metabolic disorders” (priority 2003, published 2005):

Tests used:
[1] = molecular target: T1, hPPARδ (Homo sapiens, UniProt Q03181); assay: cell-based human PPAR-GAL4 chimera luciferase reporter assay in CV-1 cells (PPARδ); conditions: CV-1 cells transiently transfected with PPAR LBD-GAL4 chimera and luciferase reporter, 24 hours treatment
T1 construct: expressed in transfected cells; host or cells: CV-1 cells
T1 sequence (Q03181 211-439 limits assumed): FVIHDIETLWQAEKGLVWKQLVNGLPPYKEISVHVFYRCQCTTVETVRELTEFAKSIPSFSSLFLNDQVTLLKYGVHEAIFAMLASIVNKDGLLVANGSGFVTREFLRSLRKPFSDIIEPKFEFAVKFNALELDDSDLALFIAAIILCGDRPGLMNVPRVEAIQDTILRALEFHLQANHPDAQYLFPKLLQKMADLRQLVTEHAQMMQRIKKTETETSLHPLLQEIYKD
Experimental: (§1) The compounds were evaluated in a cell-based assay to determine their human PPAR activity. The plasmids for human PPAR-GAL4 chimeras were prepared by fusing amplified cDNAs encoding the LBDs of PPARs to the C-terminal end of the yeast GAL4 DNA binding domain. CV-1 cells were grown and transiently tranfected with PerFectin (GTS, San Diego, Calif.) according to the manufacturer's protocol along with a luciferase reporter. Eight hours after transfection, 50 μL of cells were replated into 384 well plates (1×10^5 cells/well). Sixteen hours after replating, cells were treated with either compounds or 1% DMSO for 24 hours. Luciferase activity was then assayed with Britelite (Perkin Elmer) following the manufacturer's protocol and measured with either the Perkin Elmer Viewlux or Molecular Devices Acquest.

[2] = molecular target: T2, hPPARγ (Homo sapiens, UniProt P37231); assay: cell-based human PPAR-GAL4 chimera luciferase reporter assay in CV-1 cells (PPARγ); conditions: CV-1 cells transiently transfected with PPAR LBD-GAL4 chimera and luciferase reporter, 24 hours treatment
T2 construct: expressed in transfected cells; host or cells: CV-1 cells
T2 sequence (P37231 238-503 limits assumed): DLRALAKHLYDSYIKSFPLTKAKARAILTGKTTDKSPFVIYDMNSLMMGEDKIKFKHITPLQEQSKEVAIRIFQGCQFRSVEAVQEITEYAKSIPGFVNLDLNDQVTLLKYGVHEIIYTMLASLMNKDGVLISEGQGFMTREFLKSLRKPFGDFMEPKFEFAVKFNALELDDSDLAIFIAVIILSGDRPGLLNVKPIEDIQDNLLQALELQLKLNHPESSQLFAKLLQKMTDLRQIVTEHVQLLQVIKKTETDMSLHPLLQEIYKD
Experimental: as §1

[3] = molecular target: T3, hPPARα (Homo sapiens, UniProt Q07869); assay: cell-based human PPAR-GAL4 chimera luciferase reporter assay in CV-1 cells (PPARα); conditions: CV-1 cells transiently transfected with PPAR LBD-GAL4 chimera and luciferase reporter, 24 hours treatment; read-out: hPPAPα (EC50)
T3 construct: expressed in transfected cells; host or cells: CV-1 cells
T3 sequence (Q07869 239-466 limits assumed): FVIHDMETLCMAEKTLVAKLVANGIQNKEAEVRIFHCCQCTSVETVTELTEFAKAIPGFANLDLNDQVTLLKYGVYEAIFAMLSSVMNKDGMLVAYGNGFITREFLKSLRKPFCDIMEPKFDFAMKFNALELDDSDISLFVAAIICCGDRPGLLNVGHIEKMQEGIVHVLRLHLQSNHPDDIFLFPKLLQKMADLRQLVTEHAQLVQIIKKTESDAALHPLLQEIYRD
Experimental: as §1

SMILES | EC50 [1] | EC50 [2] | EC50 [3]
O=C(O)c1ccc2ccccc2c1OCCCN(Cc1ccc(C(F)(F)F)cc1)c1nc2ccccc2s1 | > 100 µM | < 1 µM | > 100 µM
CCCCN(CCCOc1c(C(=O)O)ccc2ccccc12)c1nc2ccccc2o1 | > 100 µM | 1 to 100 µM | > 100 µM
O=C(O)c1ccc2ccccc2c1OCCCN(Cc1ccc(C(F)(F)F)cc1C(F)(F)F)c1nc2ccccc2o1 | > 100 µM | < 1 µM | > 100 µM
CCCCN(CCCOc1c(C(=O)O)ccc2ccccc12)c1ncc(CC)cn1 | > 100 µM | < 1 µM | > 100 µM
CCc1cnc(N(CCCOc2cc3ccccc3cc2C(=O)O)Cc2ccc(C(F)(F)F)cc2C(F)(F)F)nc1 | > 100 µM | < 1 µM | 1 to 100 µM
CCCCN(CCCOc1c(C(=O)O)ccc2ccccc12)c1ccccn1 | > 100 µM | < 1 µM | > 100 µM
CCc1cnc(N(CCCOc2c(C(=O)O)ccc3ccccc23)Cc2ccc(C(F)(F)F)cc2C(F)(F)F)nc1 | > 100 µM | < 1 µM | 1 to 100 µM
CCc1cnc(N(CCCOc2ccc3cc(C(=O)O)ccc3c2)Cc2ccc(C(F)(F)F)cc2C(F)(F)F)nc1 | > 100 µM | > 100 µM | > 100 µM
CCCCN(CCCOc1cccc(CC(=O)O)c1)c1ncc(CC)cn1 | 1 to 100 µM | < 1 µM | > 100 µM
CCCCN(CCCOc1cccc(CC(=O)O)c1)c1ccccn1 | 1 to 100 µM | < 1 µM | > 100 µM

Other lines, results leading:

EC50 [1] | EC50 [2] | EC50 [3] | SMILES
< 1 µM | < 1 µM | > 100 µM | O=C(O)Cc1cccc(OCCCN(Cc2ccc(C(F)(F)F)cc2C(F)(F)F)c2ccccn2)c1
< 1 µM | < 1 µM | < 1 µM | CCc1cnc(N(CCCOc2cccc(CC(=O)O)c2)Cc2ccc(C(F)(F)F)cc2C(F)(F)F)nc1
1 to 100 µM | > 100 µM | 1 to 100 µM | CCCCN(CCCOc1cccc(CC(=O)O)c1)c1nc2ccccc2s1
1 to 100 µM | 1 to 100 µM | > 100 µM | CCCCN(CCCOc1c(C(=O)O)ccc2ccccc12)c1nc2ccccc2s1
< 1 µM | < 1 µM | < 1 µM | O=C(O)Cc1cccc(OCCCN(Cc2ccc(C(F)(F)F)cc2)c2nc3ccccc3s2)c1
1 to 100 µM | > 100 µM | 1 to 100 µM | CCCCN(CCCOc1cccc(CC(=O)O)c1)c1nc2ccccc2o1
1 to 100 µM | < 1 µM | > 100 µM | O=C(O)Cc1cccc(OCCCN(Cc2ccc(C(F)(F)F)cc2C(F)(F)F)c2nc3ccccc3o2)c1
1 to 100 µM | < 1 µM | > 100 µM | O=C(O)Cc1cccc(OCCCN(Cc2ccc(C(F)(F)F)cc2C(F)(F)F)c2nc3ccccc3s2)c1
